{"source": "patent US11413261B2", "about": "“Pharmaceutical composition for treating cancer comprising lactate metal salt” (METIMEDI PHARMACEUTICALS CO., LTD, priority 2014, dated 2022)", "key": {"[1]": {"tested_on": "human lung cancer cell line (A549)", "assay": "Colony-forming ability, anticancer drug in combination with calcium lactate (6-well plates)", "assay_type": "cell-based", "settings": "vs control", "protocol": "Human breast cancer cell line (MCF-7) and a human lung cancer cell line (A549) with the cell number of 1×10^3 cells were seeded into an RPMI1640 medium in each of 6-well plates. […]. Then, the colony-forming abilities of the cells were compared. In this case, a human breast cancer cell line (MCF-7) and a human lung cancer cell line (A549) untreated with any drug were used as control groups (FIGS. 42a, 42b, 43a and 43b).\n(§1) Human lung cancer cell line (A549) with the cell number of 1×10^3 cells were seeded into an RPMI1640 medium in each of 6-well plates. […]. Then, the colony-forming abilities of the cells were compared. In this case, a human lung cancer cell line (A549) untreated with any drug was used as a control group (FIGS. 44a and 44b).\nas §1, with “47a” for “44a”, “47b).” for “44b).”\nas §1, with “49a” for “44a”, “49b).” for “44b).”\nas §1, with “50a” for “44a”, “50b).” for “44b).”\nas §1, with “51a” for “44a”, “51b).” for “44b).”"}, "[2]": {"tested_on": "human colorectal cancer cell lines (HT-29 and HCT-116)", "assay": "Colony-forming ability, anticancer drug in combination with calcium lactate (6-well plates)", "assay_type": "cell-based", "settings": "vs control", "protocol": "Human colorectal cancer cell lines (HT-29 and HCT-116) with the cell number of 1×10^3 cells were seeded into an RPMI1640 medium in each of 6-well plates. After one day, the medium was replaced with fresh medium and the cells were treated with 2.5 mM calcium lactate or 1 μM, 2.5 μM, and 5 μM Imatinib alone or treated with various concentrations (1 μM, 2.5 μM, and 5 μM) of Imatinib in combination with 2.5 mM calcium lactate. Then, the colony-forming abilities of the cells were compared. In this case, human colorectal cancer cell lines (HT-29 and HCT-116) untreated with any drug were used as control groups (FIGS. 38a, 38b, 39a and 39b).\nHuman colorectal cancer cell lines (HT-29 and HCT-116) with the cell number of 1×10^3 cells were seeded into an RPMI1640 medium in each of 6-well plates. After one day, the medium was replaced with fresh medium and the cells were treated with 2.5 mM calcium lactate or 2.5 μM, 5 μM, and 10 μM 5-FU alone or treated with various concentrations (2.5 μM, 5 μM, and 10 μM) of 5-FU in combination with 2.5 mM calcium lactate. Then, the colony-forming abilities of the cells were compared. In this case, human colorectal cancer cell lines (HT-29 and HCT-116) untreated with any drug were used as control groups (FIGS. 40a, 40 b, 41a and 41b)."}, "[3]": {"tested_on": "human colorectal cancer cell line (HT-29)", "assay": "Colony-forming ability, anticancer drug in combination with calcium lactate (6-well plates)", "assay_type": "cell-based", "settings": "vs control", "protocol": "as §1, with “colorectal” for “lung”, “(HT-29)” for “(A549)”, “46a” for “44a”, “46b).” for “44b).”\nas §1, with “colorectal” for “lung”, “(HT-29)” for “(A549)”, “48a” for “44a”, “48b).” for “44b).”\nas §1, with “colorectal” for “lung”, “(HT-29)” for “(A549)”, “(FIG. 55).” for “(FIGS. 44a and 44b).”"}, "cancer cell": {"tested_on": "cancer cell", "assay": "Dissociation of metal lactate salts to lactate in a cancer cell", "assay_type": "cell-based"}, "[4]": {"tested_on": "human liver cancer cell line (Hep3B)", "assay": "Colony-forming ability, anticancer drug in combination with calcium lactate (6-well plates)", "assay_type": "cell-based", "settings": "1, 2.5, 5 μM Sorafenib alone, vs control", "protocol": "Human liver cancer cell line (Hep3B) with the cell number of 1×10^3 cells were seeded into an RPMI1640 medium in each of 6-well plates. After one day, the medium was replaced with fresh medium and the cells were treated with 2.5 mM calcium lactate or 1 μM, 2.5 μM, and 5 μM Sorafenib alone or treated with various concentrations (1 μM, 2.5 μM, and 5 μM) of Sorafenib in combination with 2.5 mM calcium lactate. Then, the colony-forming abilities of the cells were compared. In this case, a human liver cancer cell line (Hep3B) untreated with any drug was used as a control group (FIGS. 45a and 45b)."}, "[5]": {"tested_on": "human vascular endothelial cell (HUVEC)", "assay": "Tube formation of HUVEC in culture supernatants of treated cancer cell lines", "assay_type": "cell-based", "settings": "HUVEC treated with Sulforaphane (comparison group)", "from_the_text": "A human vascular endothelial cell (HUVEC) was inoculated into each of the obtained culture supernatant and cultured to analyze a conformational change of cells (FIG. 17). In this case, an HUVEC cultured using the culture medium of a cancer cell line cultured without treating with calcium lactate was used as a control group, and an HUVEC cultured with the treatment with Sulforaphane, which is a growth inhibitor of an HUVEC, was used as a comparison group."}, "[6]": {"tested_on": "human colorectal cancer cell line HCT-116", "settings": "5 mM CA individually, 10 days"}, "[7]": {"tested_on": "human breast cancer cell line (MCF-7)", "assay": "Colony-forming ability, anticancer drug in combination with calcium lactate (6-well plates)", "assay_type": "cell-based", "settings": "vs control", "protocol": "Human breast cancer cell line (MCF-7) and a human lung cancer cell line (A549) with the cell number of 1×10^3 cells were seeded into an RPMI1640 medium in each of 6-well plates. […] Then, the colony-forming abilities of the cells were compared. In this case, a human breast cancer cell line (MCF-7) and a human lung cancer cell line (A549) untreated with any drug were used as control groups (FIGS. 42a, 42b, 43a and 43b).\nHuman breast cancer cell line (MCF-7) with the cell number of 1×10^3 cells were seeded into an RPMI1640 medium in each of 6-well plates. After one day, the medium was replaced with fresh medium and the cells were treated with 2.5 mM calcium lactate or 2 μM, 4 μM, and 8 μM Lapatinib alone or treated with various concentrations (2 μM, 4 μM, and 8 μM) of Lapatinib in combination with 2.5 mM calcium lactate. Then, the colony-forming abilities of the cells were compared. In this case, a human breast cancer cell line (MCF-7) untreated with any drug was used as a control group (FIGS. 52a and 52b)."}, "[8]": {"tested_on": "human kidney cancer cell line (Caki-1)", "assay": "Colony-forming ability, anticancer drug in combination with calcium lactate (6-well plates)", "assay_type": "cell-based", "settings": "0.3, 0.5, 1 nM Everolimus alone, vs control", "protocol": "Human kidney cancer cell line (Caki-1) with the cell number of 1×10^3 cells were seeded into an RPMI1640 medium in each of 6-well plates. After one day, the medium was replaced with fresh medium and the cells were treated with 0.3 nM, 0.5 nM, and 1 nM Everolimus alone or treated with various concentrations (0.3 nM, 0.5 nM, and 1 nM) of Everolimus in combination with 2.5 mM calcium lactate. Then, the colony-forming abilities of the cells were compared. In this case, a human kidney cancer cell line (Caki-1) untreated with any drug was used as a control group (FIGS. 53a and 53b)."}, "[9]": {"settings": "0.63, 1.3, 2.5 nM Paclitaxel alone"}}, "data": [{"compound": "CN(Cc1cnc2nc(N)nc(N)c2n1)c1ccc(C(=O)N[C@@H](CCC(=O)O)C(=O)O)cc1", "note": "[Methotrexate]", "values": [{"measurement": "colony-forming ability", "setting": "[1]; 5, 10, 20 nM Methotrexate alone", "value": "suppressed"}]}, {"compound": "O=c1[nH]cc(F)c(=O)[nH]1", "note": "[5-FU]", "values": [{"measurement": "colony-forming ability", "setting": "[2]; 2.5, 5, 10 μM 5-FU alone", "value": "suppressed"}]}, {"compound": "O=C1[O][Pt]2([NH][C@@H]3CCCC[C@H]3[NH]2)[O]C1=O", "note": "[Oxaliplatin]", "values": [{"measurement": "colony-forming ability", "setting": "[3]; 1.3, 2.5, 5 μM Oxaliplatin alone", "value": "suppressed"}]}, {"compound": "CC(O)C(=O)[O-].[K+]", "note": "(stereo not drawn) [potassium lactate]", "values": [{"measurement": "dissociation to lactate in a cancer cell", "setting": "cancer cell", "value": "can be dissociated to lactate"}]}, {"compound": "CC(=O)O[C@@]12CO[C@@H]1C[C@H](O)[C@@]1(C)C(=O)[C@H](O)C3=C(C)[C@@H](OC(=O)[C@H](O)[C@@H](NC(=O)OC(C)(C)C)c4ccccc4)C[C@@](O)([C@@H](OC(=O)c4ccccc4)[C@H]21)C3(C)C", "note": "[Docetaxel]", "values": [{"measurement": "colony-forming ability", "setting": "[1]; 0.6, 1.3, 2.5 nM Docetaxel alone", "value": "suppressed"}]}, {"compound": "CNC(=O)c1cc(Oc2ccc(NC(=O)Nc3ccc(Cl)c(C(F)(F)F)c3)cc2)ccn1", "note": "[Sorafenib, reference compound]", "values": [{"measurement": "colony-forming ability", "setting": "[4]", "value": "suppressed"}]}, {"compound": "C[S+]([O-])CCCCN=C=S", "note": "(stereo not drawn) [Sulforaphane, reference compound]", "values": [{"measurement": "tube-forming ability of HUVEC", "setting": "[5]", "value": "reduced tube-forming ability"}]}, {"compound": "CCc1c2c(nc3ccc(OC(=O)N4CCC(N5CCCCC5)CC4)cc13)-c1cc3c(c(=O)n1C2)COC(=O)[C@]3(O)CC", "note": "[Irinotecan]", "values": [{"measurement": "colony-forming ability", "setting": "[3]; 0.5, 1, 2 μM Irinotecan alone", "value": "suppressed"}]}, {"compound": "C#Cc1cccc(Nc2ncnc3cc(OCCOC)c(OCCOC)cc23)c1", "note": "[Erlotinib]", "values": [{"measurement": "colony-forming ability", "setting": "[1]; 0.5, 1, 2 μM Erlotinib alone", "value": "suppressed"}]}, {"compound": "O=C(O)C=Cc1ccccc1", "note": "[CA, cinnamic acid, reference compound]", "values": [{"measurement": "survival rate", "setting": "[6]", "value": "about 60%"}]}, {"compound": "CS(=O)(=O)CCNCc1ccc(-c2ccc3ncnc(Nc4ccc(OCc5cccc(F)c5)c(Cl)c4)c3c2)o1", "note": "[Lapatinib]", "values": [{"measurement": "colony-forming ability", "setting": "[7]; 2, 4, 8 μM Lapatinib alone", "value": "suppressed"}]}, {"compound": "CC(O)C(=O)[O-].[Na+]", "note": "(stereo not drawn) [sodium lactate]", "values": [{"measurement": "dissociation to lactate in a cancer cell", "setting": "cancer cell", "value": "can be dissociated to lactate"}]}, {"compound": "Cc1ccc(NC(=O)c2ccc(CN3CCN(C)CC3)cc2)cc1Nc1nccc(-c2cccnc2)n1", "note": "[Imatinib]", "values": [{"measurement": "colony-forming ability", "setting": "[2]; 1, 2.5, 5 μM Imatinib alone", "value": "suppressed"}]}, {"compound": "CO[C@H]1C[C@@H]2CC[C@@H](C)[C@@](O)(O2)C(=O)C(=O)N2CCCC[C@H]2C(=O)O[C@H]([C@H](C)C[C@@H]2CC[C@@H](OCCO)[C@H](OC)C2)CC(=O)[C@H](C)/C=C(\\C)[C@@H](O)[C@@H](OC)C(=O)[C@H](C)C[C@H](C)/C=C/C=C/C=C/1C", "note": "[Everolimus, reference compound]", "values": [{"measurement": "colony-forming ability", "setting": "[8]", "value": "suppressed"}]}, {"compound": "CC(=O)O[C@H]1C(=O)[C@@]2(C)[C@H]([C@H](OC(=O)c3ccccc3)[C@]3(O)C[C@H](OC(=O)[C@H](O)[C@@H](NC(=O)c4ccccc4)c4ccccc4)C(C)=C1C3(C)C)[C@]1(OC(C)=O)CO[C@@H]1C[C@@H]2O", "note": "[Paclitaxel]", "values": [{"measurement": "colony-forming ability", "setting": "[7]; [9]", "value": "suppressed"}, {"measurement": "colony-forming ability", "setting": "[1]; [9]", "value": "suppressed"}]}, {"compound": "N.N.O=C([O-])C1(C(=O)[O-])CCC1.[Pt+2]", "note": "[Carboplatin]", "values": [{"measurement": "colony-forming ability", "setting": "[1]; 2.5, 5, 10 μM Carboplatin alone", "value": "suppressed"}]}, {"compound": "COc1cc2ncnc(Nc3ccc(F)c(Cl)c3)c2cc1OCCCN1CCOCC1", "note": "[Gefitinib]", "values": [{"measurement": "colony-forming ability", "setting": "[1]; 1.3, 2.5, 5 μM Gefitinib alone", "value": "suppressed"}]}]}
